Test results: US20160228387A1, “SOLUBILIZED FORMULATION OF COQ10 FOR USE IN TREATMENT OF PARKINSON'S DISEASE” (NATIONAL RESEARCH COUNCIL OF CANADA (NRC), priority 2013, published 2016)
Where “and” joins values, the source holds several entries; their conditions need not be identical. Equal entries are not always repeated.

Key:
[1] = system: TH-positive neurons in SNpc; test: MPTP-induced neurodegeneration in mice: stereological count of TH-positive neurons in SNpc
Method: (§1) To induce the dopaminergic neurodegeneration, male C57BL/6 mice were acclimatized to the new environment for 7 days before the start of the experiment. Animals were randomly divided into experimental groups and given 5 daily injections of MPTP (25 mg/kg/injection). Control mice were injected with saline. On days 5, 8, 14, 28, and 45 after the MPTP injections, mice were sacrificed and brain tissue was collected for immunohistochemistry, stereology, and biochemical analyses. Brains were fixed and immunostained with rabbit polyclonal anti-tyrosine hydroxylase antibody (brown) and counterstained with cresyl violet (blue) for anatomic reference. TH-positive cells were counted using an unbiased stereology method and cell survival was plotted as percentage of control.
Mice were acclimatized for 7 days before the start of the experiment and were randomly divided into 3 experimental groups (I-III). Groups I and II were given regular water throughout the duration of the experiment. […] Groups II and III received 5 daily intraperitoneal injections of MPTP (25 mg/kg/injection) whereas, group I was injected with saline. At the conclusion of the experiment on D28, all animals were sacrificed and brain tissue was collected for immunohistochemistry, sterology, and Western blot.
Mice were acclimatized to the new environment for 7 days before the start of the experiment and were randomly divided into 3 experimental groups (I-III). Control group I was injected with saline and groups II and III received 5 daily MPTP injections (25 mg/kg/injection). […] The supplementation continued until the conclusion of the experiment on D28.
At the conclusion of the experiment on day 28 (D28), all mice were sacrificed and brains were collected for immunohistochemistry and stereology. Brains were fixed and immunostained with rabbit polyclonal anti-tyrosine hydroxylase antibody (brown) and counterstained with cresyl violet (blue) for anatomic reference. Images were captured on an Olympus microscope equipped with Microcast 3CCD 1080p HD color camera system.
(§2) Mice were acclimatized for 7 days before the start of the experiment and were randomly divided into 4 experimental groups (I-IV). Control group I was injected with saline and groups II-IV with MPTP (5×25 mg/kg). Mice in groups I and II were drinking regular water throughout the duration of the experiment. […] At the conclusion of the experiment (D28), all mice were sacrificed and brains were collected for immunohistochemistry, stereology, and biochemistry. Brains were fixed and immunostained with rabbit polyclonal anti-tyrosine hydroxylase antibody and counterstained with cresyl violet. Images were captured on an Olympus microscope equipped with Microcast 3CCD 1080p HD color camera.
Mice were acclimatized to the new environment and were randomly divided into 4 experimental groups (I, II, V, and VI).

[2] = system: PD patients; details: clinical trials in humans; cited from earlier work
[3] = Dispersion and stability in water; type: physicochemical; details: added to water
Excerpt: Based on the chemical structure, a-tocopherol constitutes 35.6% or one-third of the PTS molecule (Borowy-Borowski et al., 2004).

[4] = system: rats exposed to PQ; test: Horizontal beam-walking test (leg slips) in PQ-treated rats; type: in vivo, rat; details: PQ alone (PQ3), 1st test phase, p<0.05
Method: Deficiency in motor function is a hallmark of PD. Motor skills of the rats treated in Example 2 were assessed using the beam walk test. All rats were assessed for performance on a horizontal beam-walking test for motor skills/motor deficits as measured by leg slips. The aluminium beam was 1.68 metres in length, 2 centimetres in width and 0.75 metres from the ground. A mirror was placed behind the beam, measuring 1.78 metres in length and 0.3 metres in height. Four weeks after the last injection, rats underwent one trial per day for four consecutive days (one training trial and three test trials). Eight weeks after the last injection another three test trials were performed (one trial per day). In the training trial, rats ran down the beam to the holding cage on a flat platform three times, each time with different distances between the holding cage and starting position. The first position was a quarter of the beam length, the second was half, and the last was the entire distance of the beam. […]
Rats received a small slice of apple in the holding cage located on a table at the end of the beam. […] The test trials were recorded using a standard video camera, located 2 metres perpendicular to the beam. The number of hind leg slips made from either leg during each test trial was later noted from viewing the recorded video clips. […]

[5] = system: TH-positive neurons; test: PQ-induced neurodegeneration in rats: stereological count of TH-positive neurons in midbrain sections; type: in vivo, Long Evans Hooded rats; details: for total number of TH positive neurons: mean ± SD
Method: Long Evans Hooded rats were given 5 intraperitoneal injections of PQ at a dose of 10 mg/kg body weight/injection dissolved in phosphate buffered saline (PBS), one injection every five days over a period of 20 days. Control rats received intraperitoneal injections of PBS alone. Brain tissue was examined immediately after the last PQ injection and, subsequently, 4 weeks and 8 weeks later. […] Fresh drinking solutions were provided every second day. At the conclusion of experimental treatments, rats were perfused with Tyrodes buffer containing heparin, the tissues were fixed with 10% formalin, and the brains extracted and stored in the 10% formalin until processing for immunohistochemistry. Animals were sacrificed at different time points for up to 8 weeks post-PQ exposure. Midbrain sections were prepared, immunostained with anti-tyrosine hydroxylase antibody and TH-positive neurons were counted using a stereologer in an unbiased manner.
The Ubisol-Q10 intervention was applied after the completion of PQ injections described above. By this time, neurodegenerative processes in the brain had already begun. […] This treatment began when nearly 18% of SN neurons were already lost (PQ1 group), but the question was whether the remaining vulnerable neurons could be saved. The midbrain sections were immunostained with anti-TH antibodies, and the stained neurons were counted using a stereologer in an unbiased manner.
There was also significant neuroprotection in the rats that received the Ubisol-Q10 supplemented drinking water for eight weeks post injections.

[6] = vitamin E alone; cited from earlier work
[7] = system: MPTP-treated mice; test: Beam walk test (faults) in MPTP-treated mice; details: MPTP alone (group II), D10
Method: As an additional step, the beam walk test, described above, was used to assess motor skills. The handling and training of mice on the test apparatus were performed before the MPTP injections. Mice were acclimatized to the new environment for 7 days (D[-21]-D[-14]) before the handling (D[-14]-D[-7]) and training (D[-7]-D1). Animals were randomly divided into 3 experimental groups (I-III). […] Animals were allowed to cross a 5-mm square and a 100-cm long beam and the number of faults, as well as the time taken to walk the beam, were recorded.

[8] = system: striatal dopamine; test: Striatal dopamine content in MPTP-treated mice
Method: as §1, §2

Question: Which “number of tyrosine hydroxylase-positive neurons, mean” value ([1]; in drinking water from 2 weeks before to 3 weeks after MPTP injections (Table 9; control = 100)) does the source give for “polyoxyethanyl-cholesteryl sebacate [PCS]” here?
Answer: 58

Question: With `COC1=C(OC)C(=O)C(CC=C(C)CCC=C(C)CCC=C(C)CCC=C(C)CCC=C(C)CCC=C(C)CCC=C(C)CCC=C(C)CCC=C(C)CCC=C(C)C)=C(C)C1=O` [CoQ10, 2,3-dimethoxy, 5-methyl, 6-polyisoprene para-benzoquinone] as the compound, how does the “clinical benefit against PD” value [2] read?
Answer: no clinical benefit

Question: And the behaviour in water [3]?
Answer: floats on the surface as insoluble material

Question: Which “number of leg slips versus the other three groups” value [4] does the source give for `C[n+]1ccc(-c2cc[n+](C)cc2)cc1` [PQ, paraquat] here?
Answer: significantly greater

Question: What about the “total number of TH positive neurons” value ([5]; PQ alone (5 x 10 mg/kg i.p.), 0 weeks after last PQ injection (PQ1)) of the same compound?
Answer: 8722 ± 3559

Question: What about the “loss of DA (TH-positive) neurons versus control” value ([5]; PQ alone, during the PQ injection period (PQ1)) of the same compound?
Answer: ~18% and ~15%

Question: And the “total number of TH positive neurons” value ([5]; PQ alone, regular water, 4 weeks after PQ injections (PQ2))?
Answer: 6006 ± 1928 and 6227 ± 1682

Question: And the “total number of TH positive neurons” value ([5]; PQ alone, regular water, 8 weeks after PQ injections (PQ3))?
Answer: 5114 ± 1562 and 4661 ± 1097

Question: Which effect on neuroprotection [6] does the source give for `Cc1c(C)c2c(c(C)c1O)CC[C@@](C)(CCC[C@H](C)CCC[C@H](C)CCCC(C)C)O2` [vitamin E, α-tocopherol] here?
Answer: did not have a significant effect

Question: What does the source list for `CN1CC=C(c2ccccc2)CC1` [MPTP, 1-methyl-4-phenyl-1,2,3,6-tetrahydropyridine]?
Answer: loss of TH-positive neurons ([1]; MPTP alone (5 x 25 mg/kg i.p.), day 28): 51.6% and 50%; number of tyrosine hydroxylase-positive neurons, mean ([1]; MPTP alone (Table 9; control = 100)): 66; surviving TH neurons (percentage of control) ([1]; MPTP alone, D28 (Table 5)): 50.3 ± 7.3%; survival of TH-positive neurons ([1]; MPTP alone, day 45): 50%; number of TH-positive neurons in SNpc ([1]; MPTP alone, regular water, D28 (Table 6)): 3281 ± 291 and 3320 ± 700; number of TH positive neurons in SNpc ([1]; MPTP alone, regular water, D56): 4192 ± 295; number of faults on beam walk, average [7]: ~7 faults; striatal dopamine level reduced to ([8]; MPTP alone (group II), by D28): 50%; striatal dopamine level ([8]; MPTP alone, D28 (Table 7)): 15.1 ± 2.2; decrease of striatal dopamine content ([8]; MPTP alone, by day 28): ~50%
